{"source": "ChEMBL document CHEMBL5226292", "about": "“Nonpungent N-AVAM Capsaicin Analogues and Cancer Therapy” (J Med Chem, 2021)", "key": {"[1]": {"assay": "Antiproliferative activity in mouse WEHI-3 cells assessed as cell growth inhibition", "type": "functional, cell-based"}, "[2]": {"assay": "Antiproliferative activity in human Cervical carcinoma cell assessed as cell growth inhibition", "type": "functional, cell-based"}, "Ca-Ski": {"test_system": "Ca-Ski", "assay": "Antiproliferative activity in human Ca-Ski cells assessed as cell growth inhibition", "type": "functional, cell-based"}, "P388": {"test_system": "P388", "assay": "Antiproliferative activity in mouse P388 cells assessed as cell growth inhibition by MTT assay", "type": "functional, cell-based"}, "J774": {"test_system": "J774", "assay": "Antiproliferative activity in mouse J774 cells assessed as cell growth inhibition", "type": "functional, cell-based"}, "[3]": {"assay": "Cytotoxicity against human Bone marrow cell assessed as cell growth inhibition", "type": "toxicity, cell-based", "details": "bone marrow cells"}, "DMS-114": {"test_system": "DMS-114", "assay": "Antiproliferative activity in human DMS-114 cells assessed as cell growth inhibition by MTT assay", "type": "functional, cell-based"}, "T47D": {"test_system": "T47D", "assay": "Antiproliferative activity in human T47D cells assessed as cell growth inhibition by MTT assay", "type": "functional, cell-based"}, "MCF7": {"test_system": "MCF7", "assay": "Antiproliferative activity in human MCF7 cells assessed as cell growth inhibition by MTT assay", "type": "functional, cell-based"}, "C6": {"test_system": "C6", "assay": "Antiproliferative activity against rat C6 cells assessed as inhibition of cell growth at 10 uM relative to control", "type": "functional", "design": "scale not given: the % may be the effect or the level left"}, "[4]": {"assay": "AUC in sc dosed mouse", "type": "ADME, organism-based", "design": "route sc", "details": "in vivo"}, "[5]": {"assay": "Drug concentration in Sprague-Dawley rat hepatocytes measured after 30 mins relative to control", "type": "ADME, cell-based, Hepatocyte", "details": "0.5 h"}, "[6]": {"assay": "AUC in po dosed mouse", "type": "ADME, organism-based", "design": "route po", "details": "in vivo"}, "EFM-19": {"test_system": "EFM-19", "assay": "Antiproliferative activity in human EFM-19 cells assessed as cell growth inhibition by MTT assay", "type": "functional, cell-based"}, "[7]": {"assay": "Drug concentration in rat enterocytes measured after 30 to 60 mins relative to control"}, "[8]": {"assay": "Induction of apoptosis in human PBMC cells", "type": "functional"}, "TSU": {"test_system": "TSU", "assay": "Antiproliferative activity in human TSU cells assessed as cell growth inhibition", "type": "functional, cell-based"}, "PPC-1": {"test_system": "PPC-1", "assay": "Antiproliferative activity in human PPC-1 cells assessed as cell growth inhibition", "type": "functional, cell-based"}}, "data": [{"smiles": "CCCCCC[C@@H](C/C=C\\CCCCCCCC(=O)NCc1ccc(O)c(OC)c1)OC(=O)Cc1ccccc1", "values": [{"measurement": "IC50", "setting": "[1]", "result": 31, "unit": "mg/L"}, {"measurement": "IC50", "setting": "[2]", "result": 74, "unit": "mg/L"}, {"measurement": "IC50", "setting": "Ca-Ski", "result": 122, "unit": "mg/L"}, {"measurement": "IC50", "setting": "P388", "result": 49, "unit": "mg/L"}, {"measurement": "IC50", "setting": "J774", "result": 10, "unit": "mg/L"}, {"measurement": "IC50", "setting": "[3]", "result": 73, "unit": "mg/L"}]}, {"smiles": "CCCCC/C=C\\C/C=C\\CCCCCCCC(=O)NCc1ccc(O)c(OC)c1", "values": [{"measurement": "IC50", "setting": "DMS-114", "result": 43, "unit": "µM"}]}, {"smiles": "CCCCCC[C@H](O)C/C=C\\CCCCCCCC(=O)NCc1ccc(O)c(OC)c1", "values": [{"measurement": "IC50", "setting": "[1]", "result": 3, "unit": "mg/L"}, {"measurement": "IC50", "setting": "[2]", "result": 149, "unit": "mg/L"}, {"measurement": "IC50", "setting": "P388", "result": 9, "unit": "mg/L"}, {"measurement": "IC50", "setting": "J774", "result": 8, "unit": "mg/L"}, {"measurement": "IC50", "setting": "[3]", "result": 40, "unit": "mg/L"}]}, {"smiles": "COc1cc(CNC(=O)CCCC/C=C/C(C)C)ccc1O", "note": "[CAPSAICIN]", "values": [{"measurement": "IC50", "setting": "T47D", "result": 100, "unit": "µM"}, {"measurement": "IC50", "setting": "MCF7", "result": 100, "unit": "µM"}, {"measurement": "Activity", "setting": "C6", "result": 20, "unit": "%"}]}, {"smiles": "CC/C=C\\C/C=C\\C/C=C\\CCCCCCCC(=O)NCc1ccc(O)c(OC)c1", "values": [{"measurement": "IC50", "setting": "DMS-114", "result": 15, "unit": "µM"}]}, {"smiles": "CCCCCCCC/C=C\\CCCCCCCC(=O)NCc1ccc(O)c(OC)c1", "note": "[OLVANIL]", "values": [{"measurement": "IC50", "setting": "T47D", "result": 0.75, "unit": "µM"}, {"measurement": "AUC", "setting": "[4]", "result": 8, "unit": "µg·h/g"}, {"measurement": "IC50", "setting": "MCF7", "result": 1, "unit": "µM"}, {"measurement": "Drug uptake", "setting": "[5]", "result": 4, "unit": "%"}, {"measurement": "Activity", "setting": "C6", "result": 95, "unit": "%"}, {"measurement": "IC50", "setting": "DMS-114", "result": "> 50", "unit": "µM"}, {"measurement": "AUC", "setting": "[6]", "result": 0.1, "unit": "µg·h/g"}, {"measurement": "IC50", "setting": "EFM-19", "result": 0.7, "unit": "µM"}, {"measurement": "Drug uptake", "setting": "[7]", "result": 1, "unit": "%"}, {"measurement": "Activity", "setting": "[8]", "result": 20.5, "unit": "%"}]}, {"smiles": "CCCCCCCCCCCCCCCC(=O)NCc1ccc(O)c(OC)c1", "values": [{"measurement": "IC50", "setting": "T47D", "result": 1.6, "unit": "µM"}, {"measurement": "IC50", "setting": "MCF7", "result": 2.2, "unit": "µM"}, {"measurement": "IC50", "setting": "EFM-19", "result": 1, "unit": "µM"}]}, {"smiles": "CCCCC/C=C\\C/C=C\\C/C=C\\C/C=C\\CCCC(=O)NCc1ccc(O)c(OC)c1", "values": [{"measurement": "IC50", "setting": "T47D", "result": 0.35, "unit": "µM"}, {"measurement": "IC50", "setting": "TSU", "result": 0.1, "unit": "µM"}, {"measurement": "IC50", "setting": "MCF7", "result": 0.4, "unit": "µM"}, {"measurement": "IC50", "setting": "DMS-114", "result": 15, "unit": "µM"}, {"measurement": "IC50", "setting": "PPC-1", "result": 1, "unit": "µM"}, {"measurement": "IC50", "setting": "EFM-19", "result": 0.55, "unit": "µM"}, {"measurement": "Activity", "setting": "[8]", "result": 60, "unit": "%"}]}]}
